Experimental data reported in EP0042354A2, “Imidazobenzothiadiazepines, process for their preparation and pharmaceutical compositions containing them” (CIBA-GEIGY AG, priority 1980, dated 1981).

Legend:
Format in all cases: in vivo
[1] = system: Totenkopf-Aeffchen (squirrel monkeys); assay: Sidman avoidance test (conditioned avoidance, lever press to postpone foot shock), monkeys; settings: Saimiri, in Primates, compound given 30, 90 and 210 min before the test, total dose, read-out: Gesamtdosis, welche die Vermeidungs-Reaktionen vermindert
Excerpt: (§1) Die Verbindungen der Erfindung zeigen wertvolle pharmakologische Eigenschaften, in erster Linie neuroleptische Wirkungen. Diese können in Tierversuchen, vorzugsweise an Säugern, z.B. Mäusen, Ratten oder Affen, als Testobjekte, nachgewiesen werden. Die genannten Verbindungen können ihnen enteral oder parenteral, vorzugsweise oral oder subkutan, intravenös oder intraperitoneal, z.B. durch Steckkapseln oder in Form von Stärke enthaltenden Suspensionen bzw. wässerigen Lösungen, verabreicht werden. Die verwendete Dosis kann in einem Bereich von ungefähr zwischen 0,01 und 100 mg/kg/Tag, vorzugsweise ungefähr 0,05 und 10 mg/kg/Tag, insbesonder zwischen 0,1 und 5 mg/kg/Tag, liegen.
(§2) Die genannten neuroleptischen Eigenschaften können an ausgewachsenen Ratten oder Totenkopf-Aeffchen (squirrel monkeys) nachgewiesen werden. Die Tiere sind zur Betätigung eines Hebels trainiert, wodurch sie einem auf den Fuss verabreichten elektrischen Schock ausweichen können. Jeder Hebeldruck verschiebt den Schock um 30 Sekunden. Vergisst das Tier den Hebel innerhalb des genannten Zeitintervalls einmal zu drücken, so werden alle 15 Sekunden kurze (0,5 sec.) elektrische Schocks abgegeben, bis das Tier den Hebel wieder betätigt. […]

[2] = system: Totenkopf-Aeffchen; assay: Extrapyramidal side effects and neurological symptoms observed in haloperidol-sensitised squirrel monkeys
Excerpt: Die bei den klassischen Neuroleptica bekannten extrapyramidalen Nebenwirkungen (ENW) lösen in Totenkopf-Aeffchen, welche vorher einer wiederholten antipsychotischen Behandlung unterworfen waren, charakteristische motorische Syndrome aus. Diese Bewegungsstörungen bestehen aus dystonischen Kõrperhaltungen und dyskinetischen Bewegungen, welche besser den bei Menschen auftretenden ENW entsprechen, als dies die Katalepsie oder Zittern tut. So können potentielle extrapyramidale Nebenwirkungen, aber gegebenenfalls auch andere neurologische Symptome, z.B. Ptosis, durch Beobachtung von ausgewachsenen Totenkopf-Aeffchen (von einem Gewicht von 700-1200 g) beurteilt werden. Die Tiere werden einmal wöchentlich oder einmal in zwei Wochen mit Haloperidol (1,25 mg/kg) behandelt. Nach einer derartigen Behandlung von ungefähr 2-4 Monaten treten 1-6 Stunden nach der Verabreichung von Haloperidol offensichtliche dystonische Körperhaltungen und dyskinetische Bewegungen auf. Sonst können in anderen Zeitpunkten keine abnormalen Bewegungen der Affen festgestellt werden. Nach dem Auftreten von, durch Haloperidol hervorgerufenen Dyskinesien, wird die oben geschilderte Behandlungsweise abgebrochen. Die Tiere erhalten nachher lediglich alle 4-8 Wochen 1,25 mg/kg Haloperidol und sie werden als Kontrolltiere bei der Untersuchung von Verbindungen dieser Erfindung eingesetzt.
Die Affen werden in Intervallen von 2, 4 und 6 Stunden nach der Behandlung beurteilt. Die Versuche werden in verschlossenen Zellen, welche mit ferngesteuerten Video-Beobachtungsapparaten und mit einem einheitlichen Summton-Generator ausgerüstet sind, durchgeführt. Die Beurteilungen der Tiere werden durch zwei voneinander unabhängige Beobachter vorgenommen, welche keine Kenntnis von den verabreichten Verbindungen und vom Ziel des Versuchs haben. Während der neurologischen Untersuchungen werden die Affen von einer dritten Person behandelt. Zuerst werden die Tiere durch das Video-System beobachtet. Dann betreten die Beobachter die Versuchstelle und notieren die Reaktionen der Affen als "motorisch" (das Tier geht umher in der Zelle), "visuell" (eine offenbare Reaktion, jedoch kein Umhergehen) und "keine" (keine Reaktion). Es werden auch Aktivität, Köperhaltung, Zittern, vermehrter Speichelfluss und andere neurologische Symptome berücksichtigt. Besondere Beachtung wird dem Vorhandensein oder Abwesenheit von "bizarren", vorher genannten, distonischen Körperhaltungen und dyskinetischen Bewegungen gewidmet. Die die Tiere behandelnde Person nimmt dann den Affen aus der Zelle heraus. Dabei werden die Reaktionen des Affen auf die Annäherung der mit einem Handschuh geschützten Hand, auf die erste Berührung beim Anfassen undauf die Hemmnisse nach der Gefangennahme, separat aufgeschrieben. Die Vokalisation während der Gefangennahme wird auch beurtielt. Die Person, welche das Tier behandelt, wertet dann den Körpertonus und die Pupillengrösse aus und stellt fest, ob Ptosis vorhanden ist. Hat die vorhergehende Untersuchung nahegelegt, dass Katalepsie aufgetreten ist, so wird dieses Symptom ausgewertet. Der Affe wird zuerst, Kopf nach unten, auf den Boden, dann zum Zelleneingang und schliesslich in die Beobachtungszelle gestellt. Bleibt der Affe in allen diesen Stellungen mindestens 5 Sekunden im wesentlichen unbeweglich, so wird das Vorhandensein der Katalepsie bejaht. […]

[3] = system: Ratten; assay: Sidman avoidance test (conditioned avoidance, lever press to postpone foot shock), rats; settings: Rattus norvegicus, compound given 30, 90 and 210 min before the test, total dose, read-out: Gesamtdosis, welche die Vermeidungs-Reaktionen vermindert
Excerpt: as §1, §2

CN1CCN(C2=Nc3ccccc3Sc3nccn32)CC1 [Beispiel 1, 5-(4-Methylpiperazino)-imidazo[2,1-b][1,3,5]benzothia-diazepin]
minimal effective dose [1]: ≤ 10 mg/kg | vermehrter Speichelfluss ([2]; in vivo): nicht festellbar | minimal effective dose [3]: ≤ 10 mg/kg

CN1CCN(C2=Nc3cc(Cl)ccc3Nc3ccccc32)CC1 [Clozapin]
dyskinetische Bewegungen / Dyskinesien ([2]; 10 mg/kg, monkeys rated 2, 4 and 6 h after treatment): nicht aufgetreten | vermehrter Speichelfluss ([2]; monkeys rated 2, 4 and 6 h after treatment, doses as in the dyskinesia test): bei jedem untersuchten Affen

O=C(CCCN1CCC(O)(c2ccc(Cl)cc2)CC1)c1ccc(F)cc1 [Haloperidol]
dyskinetische Bewegungen / Dyskinesien ([2]; 0,625 mg/kg (low dose), monkeys rated 2, 4 and 6 h after treatment): an fünf Affen feststellbar | dyskinetische Bewegungen / Dyskinesien ([2]; 1,25 mg/kg, monkeys rated 2, 4 and 6 h after treatment): schwere Dyskinesie
